Tests used:
Experiment in all cases: relative viability (nuclei count vs DMSO), 5 days (fraction); higher = more cells survive
Afatinib + Luminespib = compound: CN(C)C/C=C/C(=O)Nc1cc2c(Nc3ccc(F)c(Cl)c3)ncnc2cc1O[C@H]1CCOC1 [Afatinib] + CCNC(=O)c1noc(-c2cc(C(C)C)c(O)cc2O)c1-c1ccc(CN2CCOCC2)cc1 [Luminespib] (partner 0.01 µM)
How it was run: (§1)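 Lung cancer cell lines in 1536-well plates got either a single drug or a fixed anchor-drug dose together with five library-drug doses (not always all listed) in √10 steps, by pin tool, on the day after seeding. Nuclei were counted after 5 days, and relative viability is the treated-to-vehicle ratio of nuclei counts. Values are medians of duplicate plates.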

Afatinib + Lapatinib = compound: CN(C)C/C=C/C(=O)Nc1cc2c(Nc3ccc(F)c(Cl)c3)ncnc2cc1O[C@H]1CCOC1 [Afatinib] + CS(=O)(=O)CCNCc1ccc(-c2ccc3ncnc(Nc4ccc(OCc5cccc(F)c5)c(Cl)c4)c3c2)o1 [Lapatinib] (partner 2 µM)
How it was run: as §1

Afatinib + Decitabine = compound: CN(C)C/C=C/C(=O)Nc1cc2c(Nc3ccc(F)c(Cl)c3)ncnc2cc1O[C@H]1CCOC1 [Afatinib] + Nc1ncn([C@H]2C[C@H](O)[C@@H](CO)O2)c(=O)n1 [Decitabine] (partner 2 µM)
How it was run: as §1

Afatinib + Olaparib = compound: CN(C)C/C=C/C(=O)Nc1cc2c(Nc3ccc(F)c(Cl)c3)ncnc2cc1O[C@H]1CCOC1 [Afatinib] + O=C(c1cc(Cc2n[nH]c(=O)c3ccccc23)ccc1F)N1CCN(C(=O)C2CC2)CC1 [Olaparib] (partner 8 µM)
How it was run: as §1

RERF-LC-KJ
relative viability (Afatinib + Luminespib; first compound 0.005 µM): 1.19 | relative viability (Afatinib + Luminespib; first compound 0.01581 µM): 1.11 | relative viability (Afatinib + Luminespib; first compound 0.05 µM): 1.19 | relative viability (Afatinib + Luminespib; first compound 0.1581 µM): 1.1 | relative viability (Afatinib + Luminespib; first compound 0.5 µM): 1.08 | relative viability (Afatinib + Lapatinib; first compound 0.005 µM): 0.83 | relative viability (Afatinib + Lapatinib; first compound 0.01581 µM): 0.919 | relative viability (Afatinib + Lapatinib; first compound 0.05 µM): 0.849 | relative viability (Afatinib + Lapatinib; first compound 0.1581 µM): 0.834 | relative viability (Afatinib + Lapatinib; first compound 0.5 µM): 0.83 | relative viability (Afatinib + Decitabine; first compound 0.005 µM): 0.646 | relative viability (Afatinib + Decitabine; first compound 0.01581 µM): 0.613 | relative viability (Afatinib + Decitabine; first compound 0.05 µM): 0.673 | relative viability (Afatinib + Decitabine; first compound 0.1581 µM): 0.501 | relative viability (Afatinib + Decitabine; first compound 0.5 µM): 0.635 | relative viability (Afatinib + Olaparib; first compound 0.005 µM): 0.851 | relative viability (Afatinib + Olaparib; first compound 0.01581 µM): 0.86 | relative viability (Afatinib + Olaparib; first compound 0.05 µM): 0.906 | relative viability (Afatinib + Olaparib; first compound 0.1581 µM): 0.865 | relative viability (Afatinib + Olaparib; first compound 0.5 µM): 0.828

LOU-NH91
relative viability (Afatinib + Luminespib; first compound 0.005 µM): 0.319 | relative viability (Afatinib + Luminespib; first compound 0.01581 µM): 0.295 | relative viability (Afatinib + Luminespib; first compound 0.05 µM): 0.325 | relative viability (Afatinib + Luminespib; first compound 0.1581 µM): 0.326 | relative viability (Afatinib + Luminespib; first compound 0.5 µM): 0.311 | relative viability (Afatinib + Lapatinib; first compound 0.005 µM): 0.76 | relative viability (Afatinib + Lapatinib; first compound 0.01581 µM): 0.754 | relative viability (Afatinib + Lapatinib; first compound 0.05 µM): 0.806 | relative viability (Afatinib + Lapatinib; first compound 0.1581 µM): 0.736 | relative viability (Afatinib + Lapatinib; first compound 0.5 µM): 0.683 | relative viability (Afatinib + Decitabine; first compound 0.005 µM): 0.617 | relative viability (Afatinib + Decitabine; first compound 0.01581 µM): 0.672 | relative viability (Afatinib + Decitabine; first compound 0.05 µM): 0.699 | relative viability (Afatinib + Decitabine; first compound 0.1581 µM): 0.643 | relative viability (Afatinib + Decitabine; first compound 0.5 µM): 0.697 | relative viability (Afatinib + Olaparib; first compound 0.005 µM): 0.701 | relative viability (Afatinib + Olaparib; first compound 0.01581 µM): 0.704 | relative viability (Afatinib + Olaparib; first compound 0.05 µM): 0.701 | relative viability (Afatinib + Olaparib; first compound 0.1581 µM): 0.687 | relative viability (Afatinib + Olaparib; first compound 0.5 µM): 0.742

NCI-H2347
relative viability (Afatinib + Luminespib; first compound 0.005 µM): 0.295 | relative viability (Afatinib + Luminespib; first compound 0.01581 µM): 0.352 | relative viability (Afatinib + Luminespib; first compound 0.05 µM): 0.555 | relative viability (Afatinib + Luminespib; first compound 0.1581 µM): 0.404 | relative viability (Afatinib + Luminespib; first compound 0.5 µM): 0.316 | relative viability (Afatinib + Lapatinib; first compound 0.005 µM): 0.934 | relative viability (Afatinib + Lapatinib; first compound 0.01581 µM): 0.985 | relative viability (Afatinib + Lapatinib; first compound 0.05 µM): 0.832 | relative viability (Afatinib + Lapatinib; first compound 0.1581 µM): 0.987 | relative viability (Afatinib + Lapatinib; first compound 0.5 µM): 0.996 | relative viability (Afatinib + Decitabine; first compound 0.005 µM): 0.602 | relative viability (Afatinib + Decitabine; first compound 0.01581 µM): 0.654 | relative viability (Afatinib + Decitabine; first compound 0.05 µM): 0.626 | relative viability (Afatinib + Decitabine; first compound 0.1581 µM): 0.592 | relative viability (Afatinib + Decitabine; first compound 0.5 µM): 0.592 | relative viability (Afatinib + Olaparib; first compound 0.005 µM): 0.571 | relative viability (Afatinib + Olaparib; first compound 0.01581 µM): 0.699 | relative viability (Afatinib + Olaparib; first compound 0.05 µM): 0.595 | relative viability (Afatinib + Olaparib; first compound 0.1581 µM): 0.566 | relative viability (Afatinib + Olaparib; first compound 0.5 µM): 0.578

NCI-H2126
relative viability (Afatinib + Luminespib; first compound 0.005 µM): 0.958 | relative viability (Afatinib + Luminespib; first compound 0.01581 µM): 0.861 | relative viability (Afatinib + Luminespib; first compound 0.05 µM): 0.796 | relative viability (Afatinib + Luminespib; first compound 0.1581 µM): 0.681 | relative viability (Afatinib + Luminespib; first compound 0.5 µM): 0.718 | relative viability (Afatinib + Lapatinib; first compound 0.005 µM): 0.779 | relative viability (Afatinib + Lapatinib; first compound 0.01581 µM): 0.688 | relative viability (Afatinib + Lapatinib; first compound 0.05 µM): 0.686 | relative viability (Afatinib + Lapatinib; first compound 0.1581 µM): 0.761 | relative viability (Afatinib + Lapatinib; first compound 0.5 µM): 0.799 | relative viability (Afatinib + Decitabine; first compound 0.005 µM): 0.565 | relative viability (Afatinib + Decitabine; first compound 0.01581 µM): 0.519 | relative viability (Afatinib + Decitabine; first compound 0.05 µM): 0.595 | relative viability (Afatinib + Decitabine; first compound 0.1581 µM): 0.502 | relative viability (Afatinib + Decitabine; first compound 0.5 µM): 0.425 | relative viability (Afatinib + Olaparib; first compound 0.005 µM): 0.934 | relative viability (Afatinib + Olaparib; first compound 0.01581 µM): 0.881 | relative viability (Afatinib + Olaparib; first compound 0.05 µM): 0.85 | relative viability (Afatinib + Olaparib; first compound 0.1581 µM): 0.645 | relative viability (Afatinib + Olaparib; first compound 0.5 µM): 0.665

HCC-827
relative viability (Afatinib + Luminespib; first compound 0.005 µM): 0.228 | relative viability (Afatinib + Luminespib; first compound 0.01581 µM): 0.133 | relative viability (Afatinib + Luminespib; first compound 0.05 µM): 0.227 | relative viability (Afatinib + Luminespib; first compound 0.1581 µM): 0.169 | relative viability (Afatinib + Luminespib; first compound 0.5 µM): 0.148 | relative viability (Afatinib + Lapatinib; first compound 0.005 µM): 0.0458 | relative viability (Afatinib + Lapatinib; first compound 0.01581 µM): 0.174 | relative viability (Afatinib + Lapatinib; first compound 0.05 µM): 0.186 | relative viability (Afatinib + Lapatinib; first compound 0.1581 µM): 0.186 | relative viability (Afatinib + Lapatinib; first compound 0.5 µM): 0.198 | relative viability (Afatinib + Decitabine; first compound 0.005 µM): 0.162 | relative viability (Afatinib + Decitabine; first compound 0.01581 µM): 0.155 | relative viability (Afatinib + Decitabine; first compound 0.05 µM): 0.178 | relative viability (Afatinib + Decitabine; first compound 0.1581 µM): 0.174 | relative viability (Afatinib + Decitabine; first compound 0.5 µM): 0.161 | relative viability (Afatinib + Olaparib; first compound 0.005 µM): 0.135 | relative viability (Afatinib + Olaparib; first compound 0.01581 µM): 0.0842 | relative viability (Afatinib + Olaparib; first compound 0.05 µM): 0.145 | relative viability (Afatinib + Olaparib; first compound 0.1581 µM): 0.158 | relative viability (Afatinib + Olaparib; first compound 0.5 µM): 0.142

NCI-H3122
relative viability (Afatinib + Luminespib; first compound 0.005 µM): 0.103 | relative viability (Afatinib + Luminespib; first compound 0.01581 µM): 0.0816 | relative viability (Afatinib + Luminespib; first compound 0.05 µM): 0.0898 | relative viability (Afatinib + Luminespib; first compound 0.1581 µM): 0.0996 | relative viability (Afatinib + Luminespib; first compound 0.5 µM): 0.0859 | relative viability (Afatinib + Lapatinib; first compound 0.005 µM): 1.03 | relative viability (Afatinib + Lapatinib; first compound 0.01581 µM): 1.02 | relative viability (Afatinib + Lapatinib; first compound 0.05 µM): 1.05 | relative viability (Afatinib + Lapatinib; first compound 0.1581 µM): 0.992 | relative viability (Afatinib + Lapatinib; first compound 0.5 µM): 1.04 | relative viability (Afatinib + Decitabine; first compound 0.005 µM): 0.38 | relative viability (Afatinib + Decitabine; first compound 0.01581 µM): 0.439 | relative viability (Afatinib + Decitabine; first compound 0.05 µM): 0.424 | relative viability (Afatinib + Decitabine; first compound 0.1581 µM): 0.433 | relative viability (Afatinib + Decitabine; first compound 0.5 µM): 0.418 | relative viability (Afatinib + Olaparib; first compound 0.005 µM): 0.619 | relative viability (Afatinib + Olaparib; first compound 0.01581 µM): 0.628 | relative viability (Afatinib + Olaparib; first compound 0.05 µM): 0.57 | relative viability (Afatinib + Olaparib; first compound 0.1581 µM): 0.632 | relative viability (Afatinib + Olaparib; first compound 0.5 µM): 0.68

HOP-62
relative viability (Afatinib + Luminespib; first compound 0.005 µM): 1.04 | relative viability (Afatinib + Luminespib; first compound 0.01581 µM): 0.977 | relative viability (Afatinib + Luminespib; first compound 0.05 µM): 0.968 | relative viability (Afatinib + Luminespib; first compound 0.1581 µM): 0.994 | relative viability (Afatinib + Luminespib; first compound 0.5 µM): 0.89 | relative viability (Afatinib + Lapatinib; first compound 0.005 µM): 1.12 | relative viability (Afatinib + Lapatinib; first compound 0.01581 µM): 1.12 | relative viability (Afatinib + Lapatinib; first compound 0.05 µM): 1.11 | relative viability (Afatinib + Lapatinib; first compound 0.1581 µM): 1.03 | relative viability (Afatinib + Lapatinib; first compound 0.5 µM): 1.09 | relative viability (Afatinib + Decitabine; first compound 0.005 µM): 0.252 | relative viability (Afatinib + Decitabine; first compound 0.01581 µM): 0.181 | relative viability (Afatinib + Decitabine; first compound 0.05 µM): 0.238 | relative viability (Afatinib + Decitabine; first compound 0.1581 µM): 0.193 | relative viability (Afatinib + Decitabine; first compound 0.5 µM): 0.219 | relative viability (Afatinib + Olaparib; first compound 0.005 µM): 0.624 | relative viability (Afatinib + Olaparib; first compound 0.01581 µM): 0.329 | relative viability (Afatinib + Olaparib; first compound 0.05 µM): 0.606 | relative viability (Afatinib + Olaparib; first compound 0.1581 µM): 0.439 | relative viability (Afatinib + Olaparib; first compound 0.5 µM): 0.423

HCC-44
relative viability (Afatinib + Luminespib; first compound 0.005 µM): 0.957 | relative viability (Afatinib + Luminespib; first compound 0.01581 µM): 1.11 | relative viability (Afatinib + Luminespib; first compound 0.05 µM): 1.13 | relative viability (Afatinib + Luminespib; first compound 0.1581 µM): 1.17 | relative viability (Afatinib + Luminespib; first compound 0.5 µM): 1.26 | relative viability (Afatinib + Lapatinib; first compound 0.005 µM): 1.09 | relative viability (Afatinib + Lapatinib; first compound 0.01581 µM): 1.03 | relative viability (Afatinib + Lapatinib; first compound 0.05 µM): 0.953 | relative viability (Afatinib + Lapatinib; first compound 0.1581 µM): 0.97 | relative viability (Afatinib + Lapatinib; first compound 0.5 µM): 1.02 | relative viability (Afatinib + Decitabine; first compound 0.005 µM): 0.99 | relative viability (Afatinib + Decitabine; first compound 0.01581 µM): 0.96 | relative viability (Afatinib + Decitabine; first compound 0.05 µM): 0.981 | relative viability (Afatinib + Decitabine; first compound 0.1581 µM): 0.968 | relative viability (Afatinib + Decitabine; first compound 0.5 µM): 1.07 | relative viability (Afatinib + Olaparib; first compound 0.005 µM): 0.958 | relative viability (Afatinib + Olaparib; first compound 0.01581 µM): 0.921 | relative viability (Afatinib + Olaparib; first compound 0.05 µM): 0.974 | relative viability (Afatinib + Olaparib; first compound 0.1581 µM): 1 | relative viability (Afatinib + Olaparib; first compound 0.5 µM): 1.01

Reference: the supplement of paper PMC10307832
